The subject of test [1] is NCI-H358 cells (KRAS G12C mutant). Description: NCI-H358 cell proliferation inhibition (CellTiter-Glo). The class given is cell-based. The following applies: read-out: NCI-H358 (IC50). (In general: ATP-based viability assays read luminescence as a measure of living cells.)
The test system of test [2] is MIA PaCa-2-AMGR drug-resistant cell line. Description: MIA PaCa-2-AMGR drug-resistant cell proliferation inhibitory activity test. In kind it is cell-based. As to conditions: MIA PaCa-2-AMGR drug-resistant cells, 3 days incubation, CellTiter-Glo. The procedure, abridged: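 MIA PaCa-2 line made resistant by stepwise AMG510 exposure up to 1 μM. Cells seeded at 4×10^3/well overnight, then treated with 8 concentrations (5-fold dilutions) for 3 days at 37° C, 5% CO2 in DMEM with 10% FBS + 2.5% horse serum. Viability by CellTiter-Glo luminescence; IC50 versus no-inhibitor control.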

Setting [3] is: Homo sapiens, NCI-H358, 72 h, H358 cells (G12C mutation), 3 days, Table 6.

Like-named read-outs stand apart in the source and are kept apart here.

Among the data in patent US20250145589A1, “PYRIDINE DERIVATIVE AND USE THEREOF” (SICHUAN HUIYU PHARMACEUTICAL CO., LTD., priority 2021, published 2025) are IC50 values, retold here.

One may read the IC50 as the concentration at which inhibition is half-maximal. For `CC(=O)/C=C/C(=O)N1CCN(c2ncnc3ccc(-c4cnc(OCC(F)(F)F)c(NS(=O)(=O)c5ccc(F)cc5F)c4)cc23)CC1` [Example 159, (E)-2,4-difluoro-N-(5-(4-(4-(4-oxopent-2-enoyl)piperazin-1-yl)quinazolin-6-yl)-2-(2,2,2-trifluoroethoxy)pyridin-3-yl)benzenesulfonamide], the values for the 50% inhibitory concentration (IC50) in test [1] (setting [3]) and in test [2] (72 h) were 172 nM and 226 nM, respectively.

For the molecule `COc1ncc(-c2ccc3ncnc(C4CCN(C(=O)/C=C/C(C)=O)CC4)c3n2)cc1NS(=O)(=O)c1sc(C)nc1C` [Example 230, (E)-N-(2-methoxy-5-(4-(1-(4-oxopent-2-enoyl)piperidin-4-yl)pyrido[3,2-d]pyrimidin-6-yl)pyridin-3-yl)-2,4-dimethylthiazol-5-sulfonamide], the IC50 stood at 6.9 nM in test [1] (setting [3]) and 35.3 nM in test [2] (72 h).

As for `COC(=O)c1ncc(-c2ccc3ncnc(N4CCN(C(=O)/C=C/C(C)=O)CC4)c3c2)cc1NS(=O)(=O)c1ccc(F)cc1F` [Example 181, methyl (E)-3-((2,4-difluoro-phenyl)sulfonamido)-5-(4-(4-(4-oxopent-2-enoyl)piperazin-1-yl)quinazolin-6-yl)picolinate], the IC50 turned out to be 49.7 nM in test [1] (setting [3]) and 118 nM in test [2] (72 h).

As to `COc1ncc(-c2ccc3ncnc(N4CCN(C(=O)/C=C/C(C)=O)CC4)c3c2)cc1NS(=O)(=O)c1ncc(Cl)s1` [Example 165, (E)-5-chloro-N-(2-methoxy-5-(4-(4-(4-oxopent-2-enoyl)piperazin-1-yl)quinazolin-6-yl)pyridin-3-yl)thiazole-2-sulfonamide], the half-maximal inhibitory concentration (IC50) in test [1] (setting [3]) is 36.5 nM; in test [2] (72 h), 173 nM.

For `COc1ncc(-c2ccc3ncnc(C4CCN(C(=O)/C=C/C(C)=O)CC4)c3c2)cc1NS(=O)(=O)c1c(F)cccc1Cl` [Example 206, (E)-2-chloro-6-fluoro-N-(2-methoxy-5-(4-(1-(4-oxopent-2-enoyl)piperidin-4-yl)quinazolin-6-yl)pyridin-3-yl) benzenesulfonamide], the IC50 was found to be 8 nM in test [1] (setting [3]) and 6.9 nM in test [2] (72 h).

For the molecule `COc1ncc(-c2ccc3ncnc(C4CCN(C(=O)/C=C/C(C)=O)CC4)c3c2)cc1NS(=O)(=O)c1c(F)cccc1F` [Example 205, (E)-2,6-difluoro-N-(2-methoxy-5-(4-(1-(4-oxopent-2-enoyl)piperidin-4-yl)quinazolin-6-yl)pyridin-3-yl) benzenesulfonamide], the IC50 in test [1] (setting [3]) came out at 14.3 nM; in test [2] (72 h) it was 32.9 nM.

On to `COc1ncc(-c2ccc3ncnc(N4CCN(C(=O)/C=C/C(C)=O)C[C@@H]4C)c3c2)cc1NS(=O)(=O)c1c(F)cc(F)cc1F` [Example 154, (S,E)-2,4,6-trifluoro-N-(2-methoxy-5-(4-(2-methyl-4-(4-oxopent-2-enoyl)piperazin-1-yl)quinazolin-6-yl)pyridin-3-yl)benzenesulfonamide], for which the results for the IC50 in test [1] (setting [3]) and in test [2] (72 h) were 16.7 nM and 32.2 nM, respectively.

Turning to `CCCC(=O)/C=C/C(=O)N1CCN(c2ncnc3ccc(-c4cnc(OC)c(NS(=O)(=O)c5ccc(F)cc5F)c4)cc23)CC1` [Example 17, (E)-2,4-difluoro-N-(2-methoxy-5-(4-(4-(4-oxohept-2-enoyl)piperazin-1-yl)quinazolin-6-yl)pyridin-3-yl)benzenesulfonamide], the IC50 was determined as 34.6 nM in test [1] (setting [3]) and 106 nM in test [2] (72 h).

For the molecule `COc1ncc(-c2ccc3ncnc(N4CCN(C(=O)/C=C/C(C)=O)[C@H](C)C4)c3n2)cc1NS(=O)(=O)c1ccccc1F` [Example 228, (R,E)-2-fluoro-N-(2-methoxy-5-(4-(3-methyl-4-(4-oxopent-2-enoyl)piperazin-1-yl)pyrido[3,2-d]pyrimidin-6-yl)pyridin-3-yl)benzene-sulfonamide], the IC50 in test [1] (setting [3]) was found to be 13.2 nM; in test [2] (72 h) it was 13.5 nM.

Consider `COc1ncc(-c2ccc3ncnc(N4CCN(C(=O)/C=C/C(C)=O)CC4)c3c2)cc1NS(=O)(=O)c1c(F)cccc1C#N` [Example 122, (E)-2-cyano-6-fluoro-N-(2-methoxy-5-(4-(4-(4-oxopent-2-enoyl)piperazin-1-yl)quinazolin-6-yl)pyridin-3-yl)benzenesulfonamide], for which the IC50 in test [1] (setting [3]) was found to be 47.9 nM; in test [2] (72 h), 273 nM.

Take `COc1ncc(-c2ccc3ncnc(N4CCN(C(=O)/C=C/C(C)=O)CC4)c3c2)cc1NS(=O)(=O)c1ccc(Cl)cc1F` [Example 177, (E)-4-chloro-2-fluoro-N-(2-methoxy-5-(4-(4-(4-oxopent-2-enoyl)piperazin-1-yl)quinazolin-6-yl)pyridin-3-yl)benzene-sulfonamide]: the IC50 in test [1] (setting [3]) came to 36.1 nM; in test [2] (72 h) it was 36.6 nM.

Regarding `COc1ncc(-c2ccc3ncnc(N4CC5CCC(C4)N5C(=O)/C=C/C(C)=O)c3c2)cc1NS(=O)(=O)c1c(F)cccc1F` [Example 145, 2,6-difluoro-N-(2-methoxy-5-(4-(8-((E)-4-oxopent-2-enoyl)-3,8-diazabicyclo[3.2.1]octan-3-yl)quinazolin-6-yl)pyridin-3-yl)benzenesulfonamide], the IC50 in test [1] (setting [3]) turned out to be 36.2 nM; in test [2] (72 h) it was 113 nM.

`COc1ncc(-c2ccc3ncnc(C4=CCN(C(=O)/C=C/C(C)=O)CC4)c3c2)cc1NS(=O)(=O)c1c(F)cccc1F` [Example 201, (E)-2,6-difluoro-N-(2-methoxy-5-(4-(1-(4-oxopent-2-enoyl)-1,2,3,6-tetrahydropyridin-4-yl)quinazolin-6-yl)pyridin-3-yl)benzenesulfonamide]: the IC50 in test [1] (setting [3]) is 7.2 nM; in test [2] (72 h), 11.1 nM.

On to `COc1ncc(-c2ccc3ncnc(N4CCN(C(=O)/C=C/C(C)=O)CC4)c3c2)cc1NS(=O)(=O)c1ccc(C#N)cc1F` [Example 123, (E)-4-cyano-2-fluoro-N-(2-methoxy-5-(4-(4-(4-oxopent-2-enoyl)piperazin-1-yl)quinazolin-6-yl)pyridin-3-yl)benzenesulfonamide], for which the IC50 in test [1] (setting [3]) amounted to 21.2 nM; in test [2] (72 h), 328 nM.

`COc1ncc(-c2ccc3ncnc(N4CCN(C(=O)/C=C/C(C)=O)CC4)c3n2)cc1NS(=O)(=O)c1cc(F)ccc1F` [Example 217, (E)-2,5-difluoro-N-(2-methoxy-5-(4-(4-(4-oxopent-2-enoyl)piperazin-1-yl)pyrido[3,2-d]pyrimidin-6-yl)pyridin-3-yl) benzene-sulfonamide]: the IC50 is 27 nM in test [1] (setting [3]) and 21.4 nM in test [2] (72 h).

`COc1ncc(-c2ccc3ncnc(N4CCC5(CC=CC5=O)CC4)c3c2)cc1NS(=O)(=O)c1ccc(F)cc1F` [Example 70, 2,4-difluoro-N-(2-methoxy-5-(4-(1-oxo-8-azaspiro[4,5]dec-2-en-8-yl)quinazolin-6-yl)pyridin-3-yl)benzenesulfonamide]: the IC50 in test [1] (setting [3]) was determined as 58.4 nM; in test [2] (72 h) it was 139 nM.

`CCOc1ncc(-c2ccc3ncnc(N4CCN(C(=O)/C=C/C(C)=O)CC4)c3c2)cc1NS(=O)(=O)c1ccc(F)cc1F` [Example 109, (E)-N-(2-ethoxy-5-(4-(4-(4-oxopent-2-enoyl)piperazin-1-yl)quinazolin-6-yl)pyridin-3-yl)-2,4-difluorobenzenesulfonamide]: the IC50 in test [1] (setting [3]) worked out at 63.8 nM; in test [2] (72 h) it was 111 nM.

Take `COc1ncc(-c2ccc3ncnc(N4CCC5(CN(C(=O)/C=C/C(C)=O)C5)C4)c3c2)cc1NS(=O)(=O)c1c(F)cccc1F` [Example 42]: the IC50 worked out at 79 nM in test [1] and 185 nM in test [2].

Turning to `COc1ncc(-c2ccc3ncnc(N4CC5CCC(C4)N5C(=O)/C=C/C(C)=O)c3c2)cc1NS(=O)(=O)c1ccc(F)cc1Cl` [Example 175, 2-chloro-4-fluoro-N-(2-methoxy-5-(4-(8-((E)-4-oxopent-2-enoyl)-3,8-diazabicyclo [3.2.1]octan-3-yl)quinazolin-6-yl)pyridin-3-yl)benzene-sulfonamide], the IC50 in test [1] (setting [3]) came out at 22.3 nM; in test [2] (72 h) it was 36.7 nM.

For the molecule `COc1ncc(-c2ccc3ncnc(N4CCN(C(=O)/C=C/C(C)=O)CC4)c3c2)cc1NS(=O)(=O)c1c(F)cccc1F` [Example 22, (E)-2,6-difluoro-N-(2-methoxy-5-(4-(4-(4-oxopent-2-enoyl)piperazin-1-yl)quinazolin-6-yl)pyridin-3-yl)benzenesulfonamide], the IC50 in test [1] (setting [3]) came to 23.7 nM; in test [2] (72 h), 76.7 nM.

Regarding `COc1ncc(-c2ccc3ncnc(N4CCN(C(=O)/C=C/C(C)=O)CC4)c3n2)cc1NS(=O)(=O)c1ccncc1F` [Example 220, (E)-3-fluoro-N-(2-methoxy-5-(4-(4-(4-oxopent-2-enoyl)piperazin-1-yl)pyrido[3,2-d]pyrimidin-6-yl)pyridin-3-yl) pyridine-4-sulfonamide], the results for the IC50 in test [1] (setting [3]) and in test [2] (72 h) were 61.5 nM and 212 nM, respectively.

Turning to `COc1ncc(-c2ccc3ncnc(C4CCN(C(=O)/C=C/C(C)=O)CC4)c3n2)cc1NS(=O)(=O)c1ccccc1F` [Example 232, (E)-2-fluoro-N-(2-methoxy-5-(4-(1-(4-oxopent-2-enoyl)piperidin-4-yl)pyrido[3,2-d]pyrimidin-6-yl)pyridin-3-yl)benzenesulfonamide], the IC50 in test [1] (setting [3]) is 8.7 nM; in test [2] (72 h) it was 9 nM.

As to `COc1ncc(-c2ccc3ncnc(N4CCN(C(=O)/C=C/C(C)=O)CC4)c3c2)cc1NS(C)(=O)=O` [Example 170, (E)-N-(2-methoxy-5-(4-(4-(4-oxopent-2-enoyl)piperazin-1-yl)quinazolin-6-yl)pyridin-3-yl)methane-sulfonamide], the values for the IC50 in test [1] (setting [3]) and in test [2] (72 h) were 61.6 nM and 183 nM, respectively.

Take `[2H]C([2H])([2H])Oc1ncc(-c2ccc3ncnc(N4CCN(C(=O)/C=C/C(C)=O)CC4)c3c2)cc1NS(=O)(=O)c1ccc(F)cc1F` [Example 191, (E)-2,4-difluoro-N-(2-(methoxy-d3)-5-(4-(4-(4-oxopent-2-enoyl)piperazin-1-yl)quinazolin-6-yl)pyridin-3-yl)benzene-sulfonamide]: the IC50 amounted to 20.2 nM in test [1] (setting [3]) and 40.8 nM in test [2] (72 h).
